Experimental data as given in PMC10864208, “Characterizing the protein–protein interaction between MDM2 and 14-3-3σ; proof of concept for small molecule stabilization” (The Journal of Biological Chemistry, 2024).
Read-outs that look alike come from different tables or passages of the source. Non-standard residues stand in square brackets, D forms with d. Residues, ends and D or L forms follow the SMILES beside them. pS = N[C@@H](COP(=O)(O)O)C(=O)O

Columns and labels:
[1] = system: 14-3-3 PPIs; conditions: cited from earlier work
From the text: To investigate the feasibility of this, the effect of fusicoccin A (FC-A) on the PPI was studied using FP, ITC, and native MS.

[2] = system: 14-3-3σ/MDM2_159-173^pS166 peptide; assay: FP, FC-A effect on 14-3-3σ/MDM2 159-173 pS166; type: binding; conditions: 1.0 mM FC-A, 10 nM FITC-labeled MDM2_159-173^pS166; accurate fit not obtained
From the text: (§1) . Red arrows highlight peaks for the ternary complex.

[3] = system: 14-3-3σ/MDM2 complex; assay: native mass spectrometry, ternary complex with FC-A; type: binding; conditions: for relative abundance of ternary complex 14-3-3σ + MDM2 + FC-A (native MS): pH 6.8, SD, n = 3
Protocol: as §1
14-3-3 σ was buffer exchanged into 100 mM ammonium acetate pH 6.8 using a 30 kDa molecular weight cut-off Amicon Ultra centrifugal filter (Merck Millipore) and stored at −80 °C prior to use. […] . All native MS experiments were performed on an Orbitrap Eclipse Tribrid mass spectrometer (Thermo Fisher Scientific, Bremen) coupled to a nanoelectrospray source that used gold-coated borosilicate glass capillaries, pulled in-house. Positive ionization mode was used throughout with the capillary voltage set to 1.2 kV. The source temperature was set at 275 °C, in-source dissociation at 25, S-lens RF at 100. High pressure mode was used and a mass range of 2000 to 8000 m/z used to monitor the binding equilibria. Mass spectra were acquired using a maximum ion injection time of 50 ms. The automatic gain control was set to 1 x 10^6 and the ions detected in the Orbitrap with resolution set to 7500. All data was analyzed using XCalibur (v.4.1). All proteins and protein complexes were identified based on their theoretical mass.
Analytical grade ammonium acetate and LC-MS grade Dimethyl Sulfoxide (DMSO) were purchased from Fisher Scientific. 14-3-3 σ was buffer exchanged into 100 mM ammonium acetate pH 6.8 using a 30 kDa molecular weight cut-off Amicon Ultra centrifugal filter (Merck Millipore) and stored at -80 °C prior to use. The lyophilised MDM2161-191^pS166/pS186 31mer peptide (see Table S4) was diluted into 100mM ammonium acetate pH 6.8. […] . To quantify each complex, the relative abundance of the complexes observed was assumed to reflect their abundance in solution. Due to overlapping peaks, 15+ ions were excluded from analysis. […] . Standard deviations of the abundance of each complex were calculated from 3 replicates.

[4] = biological target: 14-3-3σ/MDM2_179-193^pS186 peptide (Homo sapiens, UniProt P31947+Q00987); assay: biochemical
Protocol: (§2) For all experiments, a fixed concentration of 10 nM fluorescently labeled peptide (FITC) was used. […] All data was analyzed using GraphPad Prism 7 and sigmoidal curves were fitted using the following equation: Y=Bottom + (Top-Bottom)/(1+10ˆ((Log app.Kd-X)∗HillSlope)), where Y = mP value; X = log 14-3-3 concentration; top and bottom = plateaus in mP.

[5] = biological target: T1, 14-3-3σ (Homo sapiens, UniProt P31947); assay: fluorescence polarization (FP), direct binding to 14-3-3σ; conditions: for binding to 14-3-3σ by FP (in words) / maximum polarization level (in words): FITC-labeled peptide 10 nM; for binding to 14-3-3σ by FP (in words): pH 7.5; for maximum polarization level (in words): 14-3-3σ titration
T1 sequence (P31947 1-248): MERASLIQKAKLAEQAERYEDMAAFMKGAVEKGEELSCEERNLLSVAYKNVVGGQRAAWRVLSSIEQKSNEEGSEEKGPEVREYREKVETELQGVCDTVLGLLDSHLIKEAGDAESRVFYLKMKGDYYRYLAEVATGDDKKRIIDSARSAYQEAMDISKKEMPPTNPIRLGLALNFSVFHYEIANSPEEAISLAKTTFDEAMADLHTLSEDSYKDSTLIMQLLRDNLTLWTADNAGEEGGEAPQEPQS
Protocol: as §2
(§3) Both proteins were prepared via the following procedure:
(§4) For all experiments a fixed concentration of 10 nM fluorescently labelled peptide (FITC) was used. […] All data was analysed using GraphPad Prism 7 and sigmoidal curves were fitted using the following equation:

[6] = biological target: T2, 14-3-3ζ (Homo sapiens, UniProt P63104); assay: fluorescence polarization (FP), direct binding to 14-3-3ζ
T2 sequence (P63104 1-245): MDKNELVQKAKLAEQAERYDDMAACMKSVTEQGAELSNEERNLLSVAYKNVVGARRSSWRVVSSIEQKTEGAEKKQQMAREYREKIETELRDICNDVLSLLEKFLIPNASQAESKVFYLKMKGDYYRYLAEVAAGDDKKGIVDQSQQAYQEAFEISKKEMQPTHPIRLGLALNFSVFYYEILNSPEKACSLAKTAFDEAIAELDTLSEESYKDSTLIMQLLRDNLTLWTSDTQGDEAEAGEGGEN
Protocol: as §2, §3, §4

[7] = system: 14-3-3σ and 14-3-3ζ; assay: ITC, mono-phosphorylated MDM2 peptides; type: binding; conditions: N-acetylated peptide 1.0 mM into 14-3-3 100 µM, 25 °C, pH 7.5, Malvern MicroCal ITC200

## C=CC(C)(C)OC[C@H]1O[C@H](O[C@@H]2C3=C([C@H](C)COC(C)=O)C[C@H](O)[C@]3(C)/C=C3/[C@@H](COC)CC[C@H]3[C@@H](C)[C@H]2O)[C@H](O)[C@@H](OC(C)=O)[C@@H]1O [FC-A, fusicoccin A]
[1]; ref [27]
  stabilization of di-phosphorylated mode I/II motif peptides, e.g. CFTR (in words): shown to stabilize peptides containing mode I/II type di-phosphorylated binding motifs
[1]; ref [43]
  stabilization of mode III 14-3-3 PPIs (in words): predominantly stabilizes mode III 14-3-3 PPIs
[2]
  effect of FC-A on binding (FP, in words): small effect
[3]; 14-3-3σ 5 μM : MDM2 10 μM : FC-A 5 μM
  relative abundance of ternary complex 14-3-3σ + MDM2 + FC-A (native MS): 6 ± 3%
[3]; 14-3-3σ 5 μM : MDM2 10 μM : FC-A 25 μM
  relative abundance of ternary complex 14-3-3σ + MDM2 + FC-A (native MS): 15 ± 5%
[3]; 14-3-3σ 5 μM, MDM2 peptide 10 μM, FC-A 5 or 25 μM
  composition of ternary complex (native MS, in words): a 14-3-3 dimer, a single MDM2 di-phosphorylated peptide, and a single FC-A molecule

## CC[C@H](C)[C@H](NC(=O)[C@H](CO)NC(=O)[C@H](CC(=O)O)NC(=O)[C@H](COP(=O)(O)O)NC(=O)[C@H](CCCCN)NC(=O)[C@H](Cc1c[nH]cn1)NC(=O)[C@H](CCCNC(=N)N)NC(=O)[C@H](CCCCN)NC(=O)[C@H](CCCNC(=N)N)NC(=O)[C@H](CCC(N)=O)NC(=O)[C@H](CCCNC(=N)N)NC(C)=O)C(=O)N[C@@H](CO)C(=O)N[C@@H](CC(C)C)C(=O)N[C@@H](CO)C(=O)N[C@@H](Cc1ccccc1)C(N)=O [MDM2_179-193^pS186] (Ac-RQRKRHK[pS]DSISLSF-NH2)
[4]
  Kd: 24.6 ± 12 µM
[5]
  Kd: 26.2 ± 17.9 µM
[5]; Kd (FP), duplicate data, duplicate data set (Fig. S1A), 14-3-3σ titrated to 10 nM FITC-labelled peptide, pH 7.5, room temperature, SD, n=3
  Kd: 22.3 ± 21.5 µM
[6]
  Kd: 11.4 ± 5.4 µM

## AcHN-^159SSRRRAI(pS)ETEENSD^173-NH2 (Ac-SSRRRAI[pS]ETEENSD-NH2; SMILES CC[C@H](C)[C@H](NC(=O)[C@H](C)NC(=O)[C@H](CCCNC(=N)N)NC(=O)[C@H](CCCNC(=N)N)NC(=O)[C@H](CCCNC(=N)N)NC(=O)[C@H](CO)NC(=O)[C@H](CO)NC(C)=O)C(=O)N[C@@H](COP(=O)(O)O)C(=O)N[C@@H](CCC(=O)O)C(=O)N[C@H](C(=O)N[C@@H](CCC(=O)O)C(=O)N[C@@H](CCC(=O)O)C(=O)N[C@@H](CC(N)=O)C(=O)N[C@@H](CO)C(=O)N[C@@H](CC(=O)O)C(N)=O)[C@@H](C)O; UniProt Q00987 159-173, looked up, fragment) [MDM2_159-173^pS166]
[5]
  binding to 14-3-3σ by FP (in words): bound weakly to 14-3-3σ and saturation was not observed
[7]
  binding by ITC (in words): could not be detected
[6]; FITC-labeled peptide 10 nM, pH 7.5
  binding to 14-3-3ζ by FP (in words): bound weakly to 14-3-3ζ, and no effective Kd value could be obtained

## FITC-Ahx-^159SSRRRAI(pS)ETEENSDELSGERQRKRHKSDSISLSF^193-NH2 (SSRRRAISETEENSDELSGERQRKRHKSDSISLSF; phosphoSer166; FITC label; UniProt Q00987 159-193, looked up, fragment) [MDM2_159-193^pS166]
[5]
  maximum polarization level (in words): small increase in the maximum polarization value
  binding to 14-3-3σ by FP (in words): saturation was not observed and an effective Kd value could not be obtained

## FITC-Ahx-^159SSRRRAISETEENSDELSGERQRKRHK(pS)DSISLSF^193-NH2 (SSRRRAISETEENSDELSGERQRKRHKSDSISLSF; phosphoSer186; FITC label; UniProt Q00987 159-193, looked up, fragment) [MDM2_159-193^pS186]
[5]
  maximum polarization level (in words): comparable to that observed for the di-phosphorylated MDM2_161-191^pS166/pS186 peptide
  binding to 14-3-3σ by FP (in words): much weaker affinity than the 15 amino acid MDM2_179-193^pS186 peptide
